Experimental data taken from patent US8835474B2, “Remedy for overactive bladder comprising acetic acid anilide derivative as the active ingredient” (Astellas Pharma Inc., priority 2002, dated 2014).

What was measured:
[1] = system: isolated rat bladder smooth muscle; assay: Isolated rat bladder smooth muscle relaxation test, antagonism test to contraction by carbachol; format: cell-based; conditions: for EC50: Rattus norvegicus; for EC50 / Maximum Relaxation Rate: contraction by 10^−6 M carbachol, relaxation by 10^−4 M papaverine defined as 100%; for Comparison of Action Strength: compared in the concentration giving a relaxation rate of 15.7%, CGP-12,177A = 1; for Concentration where the compound showed a relaxation rate of 15.7%: maximum relaxation rate of CGP-12,177A
Protocol: (§1) The test was conducted by referring to The Journal of Urology, 1999, volume 161, page 680.
(§2) Male rats of Wistar strain of 10 to 11 weeks age were sacrificed by depletion, whole bladder was isolated by laparotomy and bladder sections each being in a size of about 3×10 mm were prepared in a nutrient solution which was well oxygenated with 95% O2 and 5% CO2 (Krebs-Henseleit solution (118.4 mM NaCl, 4.7 mM KCl, 1.2 mM KH2PO4; 1.2 mM MgSO4, 2.5 mM CaCl2, 25.0 mM NaHCO3 and 11.1 mM glucose)). The section was hung in a Magnus tube in which a nutrient solution (Krebs-Henseleit solution) of 37° C. into which 95% O2 and 5% CO2 were aerated, stabilized for 30 to 60 minutes with a load of 1 g and 10^−6 M carbachol (CCh) or 40 mM potassium chloride (KCl) was repeatedly applied thereto whereupon it was confirmed that reactivity to CCh or KCl became almost constant. After contraction by 10^−6 M CCh or 40 mM KCl was induced and the generated tension was stabilized, a test drug (compound A or CGP-12, 177A) was cumulatively administered in 10-fold ratio with intervals of about 10 minutes and the relaxation reaction was observed. After completion of observation of relaxation reaction at maximum concentration of the test drug, 10^−4 M papaverine was added to induce the maximum relaxation and a relaxation rate was calculated where the relaxation reaction was defined as 100%.

[2] = system: isolated rat bladder smooth muscle; assay: Isolated rat bladder smooth muscle relaxation test, antagonism test to contraction by potassium chloride; format: cell-based; conditions: for EC50: Rattus norvegicus; for EC50 / Maximum Relaxation Rate: contraction by 40 mM potassium chloride, relaxation by 10^−4 M papaverine defined as 100%; for Comparison of Action Strength: compared in the concentration giving a relaxation rate of 17.4%, CGP-12,177A = 1; for Concentration where the compound showed a relaxation rate of 17.4%: maximum relaxation rate of CGP-12,177A
Protocol: as §1, §2

[3] = system: rhythmic bladder contraction; assay: Rat rhythmic bladder contraction measurement test; format: in vivo
Protocol: The test was conducted by referring to European Journal of Pharmacology, 2000, volume 407, page 175. Female rats (225 to 290 g) of Wistar strain was used for the test. Under anesthetization with urethane, right and left ureters were ligated and cut and, after that, a polyethylene cannula was inserted from external urinary meatus and fixed. One end of the fixed cannula was connected to a pressure transducer via a three-way cock and pressure in the bladder was measured. Another end thereof was connected to a syringe pump and a physiological saline solution was continuously infused at a constant rate into bladder whereupon rhythmic bladder contraction was induced. The continuous infusion of a physiological saline solution was stopped after a rhythmic bladder contraction was noted. After the rhythmic bladder contraction was stabilized, drug or vehicle was administered from a catheter for administration of drug inserted into femoral vein. The compound A was intravenously administered in increased doses where the ratio was 3 (0.03, 0.1, 0.3, 1 and 3 mg/kg). A group to which vehicle was administered was used as a control group. Parameters for evaluation were number of times and contraction pressure of bladder contraction during 10 minutes from 5 to 15 minutes after the administration of the drug and each group was conducted in n=5. The result is shown in terms of mean value±standard error and Student t-test was conducted for comparison between the two groups.

[4] = system: cyclophosphamide-induced overactive bladder model rat; assay: Measurement of urination function of overactive bladder model rat induced by cyclophosphamide; format: in vivo; conditions: 1 mg/kg i.v.; 30 minutes after administration versus 30 minutes before
Protocol: Overactive bladder model rats induced by cyclophosphamide were prepared by referring to British Journal of Pharmacology, 2000, volume 130, page 331 and the following test was conducted. Female rats (220 to 230 g) of Wistar strain were used for the test. Under anesthetization with pentobarbital sodium, a catheter for infusion of physiological saline solution and for measurement of pressure in bladder was inserted into bladder from the top of the bladder and fixed while a catheter for administration of a drug was inserted into carotid vein and fixed. Cyclophosphamide (CYP) was administered into abdominal cavity and, after being recovered, the rats were returned to a feeding cage. On the next day of the operation, one end of the catheter inserted into bladder of the rat was connected to a syringe pump via a three-way cock and a physiological saline solution was continuously infused whereby |micturition| reflex was induced. Another end was connected to a pressure transducer and pressure in the bladder was measured. After the micturition reflex was stabilized, 1 mg/kg of the compound A was administered from a catheter for administration of drug which was inserted into carotid vein. Parameter for the evaluation was an average interval for urination from administration of the drug until 30 minutes thereafter. […]

[5] = contraction by potassium chloride

EC50 [1] [µM] | EC50 [2] [µM] | SMILES | Maximum Relaxation Rate [1] [%] | Comparison of Action Strength ([1]; contraction by carbachol) | Concentration where the compound showed a relaxation rate of 15.7% ([1]; contraction by carbachol) | Maximum Relaxation Rate [2] [%] | Comparison of Action Strength [2, 5] | Concentration where the compound showed a relaxation rate of 17.4% [2, 5] | relaxation action ([1]; antagonism test to contraction by carbachol) | action strength as compared with CGP-12,177A ([1]; contraction by carbachol) [fold] | action of decreasing the contraction frequency versus control group ([3]; 3 mg/kg i.v., Student t-test, p<0.05) | contraction frequency of rhythmic bladder contraction ([3]; i.v. 0.03, 0.1, 0.3, 1 and 3 mg/kg, 5 to 15 minutes after administration, anesthetized female Wistar rats) | contraction pressure of rhythmic bladder contraction ([3]; until intravenous administration of 3 mg/kg) | elongation of micturition interval [4] [%] | relaxation action ([2]; antagonism test to contraction by potassium chloride) | action strength as compared with CGP-12,177A [2, 5] [fold]
> 100 | > 100 | CC(C)(C)NC[C@H](O)COc1cccc2[nH]c(=O)[nH]c12 [CGP-12, 177A, reference compound] | 15.7 | 1 | 10^−4 M | 17.4 | 1 | 10^−4 M |  |  |  |  |  |  |  | 
5.2 | 11 | Nc1nc(CC(=O)Nc2ccc(CCNC[C@H](O)c3ccccc3)cc2)cs1 [Compound A, (R)-2-(2-aminothiazol-4-yl)-4′-[2-[(2-hydroxy-2-phenylethyl)amino]-ethyl]acetic acid anilide] | 94.0 | 270 | 3.7e-07 M | 69.1 | 383 | 2.6e-07 M | strong relaxation action | 270 | significant | decreased on a dose-dependent manner | did not affect | 17.3 | strong relaxation action | 383
